Five compounds from ChEMBL document CHEMBL5143702, “Discovery of novel bis-evodiamine derivatives with potent antitumor activity” (Bioorg Med Chem, 2022) can be followed below.

Converted amounts (≈) assume the structure as drawn. The source made the active and inactive calls. The calls are words filed in the database; no cut-off is given here.

The subject of series [1] is HCT-116. In words: In-vitro antitumor activity against human HCT-116 cells incubated for 72 hrs by CCK8 assay. The class given is functional, cell-based. The note with it: HCT-116, 72 h. A general note: Tetrazolium assays rely on reduction of a dye to a coloured formazan, in cell work by metabolically active cells.
The subject of series [2] is MCF7. The experiment in a line: In-vitro antitumor activity against human MCF7 cells incubated for 72 hrs by CCK8 assay. It counts as functional, cell-based. Particulars: MCF7, 72 h.
The test system of series [3] is A549. The experiment in a line: In-vitro antitumor activity against human A549 cells incubated for 72 hrs by CCK8 assay. The class given is functional, cell-based. The note with it: A549, 72 h.
Series [4] is described as follows: In-vitro cytotoxic activity against human HUVEC cells incubated for 72 hrs by CCK8 assay. It counts as toxicity, cell-based.
Series [5] has as its system HCT-116. In words: Inhibition of cell proliferation of human HCT-116 cells at 0.01 to 10 uM incubated for 48 hrs by RTCA assay. The class given is functional. The note with it: dose 0.01-10 µM.
Series [6] relates to HCT-116. In words: Inhibition of cell colony formation of human HCT-116 cells at 0.025 to 0.5 uM by clonogenicity assay. The class given is functional, cell-based. Particulars: dose 0.025-0.5 µM.
The subject of series [7] is HCT-116. The experiment in a line: Inhibition of cell migration of human HCT-116 cells at 0.01 to 0.15 uM incubated for 24 hrs by wound healing assay. The note with it: dose 0.01-0.15 µM. It counts as functional, cell-based.
In series [8] the test system is HCT-116. The experiment in a line: Induction of apoptosis in human HCT-116 cells at 0.05 to 0.25 uM incubated for 48 hrs by Annexin V/PI staining based flow cytometry. It counts as functional, cell-based. The note with it: dose 0.05-0.25 µM, DDE = dose-dependent effect.
For series [9], the system named is HCT-116. In words: Induction of apoptosis in human HCT-116 cells assessed as increase in Bax protein expression at 0.05 to 1.5 uM incubated for 24 hrs by Western blot analysis. It counts as functional, cell-based. Particulars: dose 0.05-1.5 µM.
Series [10] relates to HCT-116. The experiment in a line: Induction of apoptosis in human HCT-116 cells assessed as decrease in Bcl-2 protein expression at 0.05 to 1.5 uM incubated for 24 hrs by Western blot analysis. The class given is functional, cell-based. Particulars: dose 0.05-1.5 µM.
In series [11] the test system is HCT-116. The experiment in a line: Induction of apoptosis in human HCT-116 cells assessed as increase in p53 protein expression at 0.05 to 1.5 uM incubated for 24 hrs by Western blot analysis. The class given is functional, cell-based. Particulars: dose 0.05-1.5 µM.
The test system of series [12] is HCT-116. In words: Induction of apoptosis in human HCT-116 cells assessed as increase in cytochrome C protein expression at 0.05 to 1.5 uM incubated for 24 hrs by Western blot analysis. It counts as functional, cell-based. The note with it: dose 0.05-1.5 µM.
Series [13] has as its system HCT-116. In words: Induction of apoptosis in human HCT-116 cells assessed as reduction in cytochrome C protein expression at 1.5 uM incubated for 24 hrs by Western blot analysis. The class given is functional, cell-based.
The test system of series [14] is HCT-116. In words: Induction of apoptosis in human HCT-116 cells assessed as reduction in p53 protein expression at 1.5 uM incubated for 24 hrs by Western blot analysis. It counts as functional, cell-based. (In general: A western blot detects proteins with antibodies after separation by electrophoresis.)
Series [15] relates to HCT-116. The experiment in a line: Induction of cell cycle arrest in human HCT-116 cells assessed as increase in Cyclin B1 expression at 0.05 to 1.5 uM incubated for 24 hrs by Western blot analysis. It counts as functional, cell-based. Particulars: dose 0.05-1.5 µM.
Series [16] deals with HCT-116. The experiment in a line: Induction of cell cycle arrest in human HCT-116 cells assessed as reduction in Cdc25c expression at 0.05 to 1.5 uM incubated for 24 hrs by Western blot analysis. The class given is functional, cell-based. Particulars: dose 0.05-1.5 µM.
In series [17] the test system is HCT-116. The experiment in a line: Induction of apoptosis in human HCT-116 cells at 0.05 uM incubated for 48 hrs by Annexin V/PI staining based flow cytometry (reference value: 3.86%). The class given is functional. On the technique in general: Flow cytometry measures light scatter and fluorescence of single cells or particles in a stream.
For series [18], the system named is HCT-116. The experiment in a line: Induction of apoptosis in human HCT-116 cells at 0.1 uM incubated for 48 hrs by Annexin V/PI staining based flow cytometry (reference value: 3.86%). The class given is functional.
In series [19] the test system is HCT-116. In words: Induction of apoptosis in human HCT-116 cells at 0.15 uM incubated for 48 hrs by Annexin V/PI staining based flow cytometry (reference value: 3.86%). It counts as functional.
Series [20] deals with HCT-116. The experiment in a line: Induction of apoptosis in human HCT-116 cells at 0.25 uM incubated for 48 hrs by Annexin V/PI staining based flow cytometry (reference value: 3.86%). The class given is functional.
The test system of series [21] is HCT-116. In words: Induction of cell cycle arrest in human HCT-116 cells assessed as accumulation at G1 phase at 0.01 uM incubated for 48 hrs by flow cytometry (reference value: 33.16%). The class given is functional.
Series [22] deals with HCT-116. The experiment in a line: Induction of cell cycle arrest in human HCT-116 cells assessed as accumulation at G1 phase at 0.05 uM incubated for 48 hrs by flow cytometry (reference value: 33.16%). The class given is functional.
In series [23] the test system is HCT-116. The experiment in a line: Induction of cell cycle arrest in human HCT-116 cells assessed as accumulation at G1 phase at 0.25 uM incubated for 48 hrs by flow cytometry (reference value: 33.16%). It counts as functional.
Series [24] relates to HCT-116. The experiment in a line: Induction of cell cycle arrest in human HCT-116 cells assessed as accumulation at G2/M phase at 0.01 uM incubated for 48 hrs by flow cytometry (reference value: 32.63%). It counts as functional.
Series [25] concerns HCT-116. The experiment in a line: Induction of cell cycle arrest in human HCT-116 cells assessed as accumulation at G2/M phase at 0.05 uM incubated for 48 hrs by flow cytometry (reference value: 32.63%). The class given is functional.
Series [26] deals with HCT-116. The experiment in a line: Induction of cell cycle arrest in human HCT-116 cells assessed as accumulation at G2/M phase at 0.25 uM incubated for 48 hrs by flow cytometry (reference value: 32.63%). It counts as functional.
Series [27] has as its system HCT-116. The experiment in a line: Induction of cell cycle arrest in human HCT-116 cells assessed as accumulation at S phase at 0.01 uM incubated for 48 hrs by flow cytometry (reference value: 34.21%). It counts as functional.
Series [28] has as its system HCT-116. The experiment in a line: Induction of cell cycle arrest in human HCT-116 cells assessed as accumulation at S phase at 0.05 uM incubated for 48 hrs by flow cytometry (reference value: 34.21%). It counts as functional.
Series [29] relates to HCT-116. In words: Induction of cell cycle arrest in human HCT-116 cells assessed as accumulation at S phase at 0.25 uM incubated for 48 hrs by flow cytometry (reference value: 34.21%). The class given is functional.
Series [30] concerns HCT-116. In words: Inhibition of cell migration of human HCT-116 cells at 0.25 uM incubated for 24 hrs by wound healing assay. The class given is functional, cell-based.

In the case of `CN1c2ccc(F)cc2C(=O)N2CCc3c([nH]c4ccc(OC(=O)CCSSCCC(=O)Oc5ccc6[nH]c7c(c6c5)CCN5C(=O)c6cc(F)ccc6N(C)C75)cc34)C21` (configuration not stated), the IC50 (as a rule, the concentration that gives 50% inhibition) in [1] stood at 170 nM; in series [2], 410 nM; in series [3], 610 nM. This compound also returned an IC50 at 72 h in series [4] of 130 nM.
As for `CC[C@@]1(O)C(=O)OCc2c1cc1n(c2=O)Cc2cc3ccccc3nc2-1` [CAMPTOTHECIN], the IC50 in series [1] was found to be 40 nM; in [2], 21 nM; in series [3], 74 nM. For the same compound, the IC50 at 72 h in series [4] is 12 nM.
As to `CN1c2ccc(F)cc2C(=O)N2CCc3c([nH]c4ccc(OC(=O)CCCC(=O)Oc5ccc6[nH]c7c(c6c5)CCN5C(=O)c6cc(F)ccc6N(C)C75)cc34)C21` (configuration not stated), inhibition of growth in series [5] (MIC) required 0.01 µM (≈ 7.71 ng/mL). The inhibition result in [5] (DDE = dose-dependent effect) is “Dde”. Further, the inhibition result in series [6] and in series [7] was “Active” throughout. In addition, the Activity result in [8] was “Dde”; in series [17] it was 47.78%; in series [18] it was 54.32%; in [19], 58.73%; in [20] it was 75.11%; in series [21], 42.61%. In addition, the Activity amounted to 40.2% in [22]; 34.77% in series [23]; 30.43% in [24]; 59.8% in series [25]; 65.23% in [26]; 26.96% in series [27]. For the same compound, the Activity in [28] and in series [29] was 0% each time. The outcome in series [9], in [10], in series [11], in series [12], in series [13] and in [14] was Active. Also, the outcome in series [15] and in [16] was Active. Besides, the values for the IC50 in series [1], in series [2] and in series [3] were 32 nM, 200 nM and 730 nM, respectively. Besides, the half-maximal inhibitory concentration (IC50) at 72 h in [4] stood at 580 nM.
Turning to `CN1c2ccc(F)cc2C(=O)N2CCc3c([nH]c4ccc(O)cc34)C21` (configuration not stated), the inhibition result in series [30] was “Active”. Also, the IC50 in series [1] was found to be 73 nM; in series [2], 44 nM; in series [3], 460 nM. Moreover, inhibition in series [4] was half-maximal at 260 nM (IC50 at 72 h).
As to `CN1c2ccc(F)cc2C(=O)N2CCc3c([nH]c4ccc(OC(=O)CCC(=O)Oc5ccc6[nH]c7c(c6c5)CCN5C(=O)c6cc(F)ccc6N(C)C75)cc34)C21` (configuration not stated), the IC50 is 32 nM in [1], 890 nM in series [2] and 680 nM in series [3]. In addition, the midpoint of inhibition in series [4], the IC50 at 72 h, lay at 210 nM.
